Measurements taken from US20260317319A1, “NOVEL ERGOLINES AND METHODS OF TREATING MOOD DISORDERS” (Gilgamesh Pharma Inc., priority 2023, published 2026).
pEC50, pKi: −log10 of the molar value. Read-outs that look alike come from different tables or passages of the source.

How the values were obtained:
5-HT1A receptor = molecular target: T1, 5-HT1A receptor (Homo sapiens, UniProt P08908); test: cell-based; conditions: agonist, Ca2+ flux; for Emax: CHO, CHO cells with Gα15, max dose, read-out: 5-HT1A % Act @ Max Dose; for pEC50: CHO cells with Gα15
T1 construct: expressed in transfected cells; host or cells: CHO cells, stably transfected
T1 sequence (P08908 1-422): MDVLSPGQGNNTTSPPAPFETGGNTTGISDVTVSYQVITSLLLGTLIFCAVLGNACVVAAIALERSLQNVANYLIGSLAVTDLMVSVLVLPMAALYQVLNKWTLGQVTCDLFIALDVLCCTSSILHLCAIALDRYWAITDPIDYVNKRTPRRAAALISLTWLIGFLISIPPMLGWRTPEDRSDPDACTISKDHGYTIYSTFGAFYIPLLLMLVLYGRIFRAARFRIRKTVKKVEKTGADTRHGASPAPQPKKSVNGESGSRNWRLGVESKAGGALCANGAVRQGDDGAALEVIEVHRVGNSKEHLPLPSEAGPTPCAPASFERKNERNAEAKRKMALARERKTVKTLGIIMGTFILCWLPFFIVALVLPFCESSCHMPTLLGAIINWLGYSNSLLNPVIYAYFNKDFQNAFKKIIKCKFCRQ
In short: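 Using HEK293 lines for the 5-HT2 subtypes and Gα15-coupled CHO cells for 5-HT1A, compounds were tested as agonists. Fluorescent Ca2+ signal followed dye loading (Fluo-4 Direct, 2.5 mM final probenecid, 50 min, 37 °C).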

5-HT2C receptor = molecular target: T2, 5-HT2C receptor (Homo sapiens, UniProt P28335); test: cell-based; conditions: agonist, Ca2+ flux, Eurofins DiscoverX protocol; for Emax: max dose, read-out: 5-HT2C % Act @ Max Dose; for pEC50: read-out: 5-HT2C EC50
T2 sequence (P28335 33-458): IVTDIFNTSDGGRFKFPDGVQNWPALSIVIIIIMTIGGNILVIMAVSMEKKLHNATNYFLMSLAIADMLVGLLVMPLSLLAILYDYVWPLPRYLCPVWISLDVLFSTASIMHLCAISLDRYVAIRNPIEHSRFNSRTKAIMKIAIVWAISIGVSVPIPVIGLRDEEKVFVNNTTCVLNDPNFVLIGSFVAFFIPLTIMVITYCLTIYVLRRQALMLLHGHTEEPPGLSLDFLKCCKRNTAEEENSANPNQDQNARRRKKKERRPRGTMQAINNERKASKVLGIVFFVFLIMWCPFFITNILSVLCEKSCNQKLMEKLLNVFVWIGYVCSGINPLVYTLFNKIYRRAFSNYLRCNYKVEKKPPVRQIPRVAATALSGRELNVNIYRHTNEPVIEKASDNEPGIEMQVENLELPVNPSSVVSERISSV

5-HT2B receptor = molecular target: T3, 5-HT2B receptor (Homo sapiens, UniProt P41595); test: cell-based; type: cell-based; conditions: Ca2+ flux; for Emax: HEK293, agonist, HEK293, max dose, read-out: 5-HT2B % Act @ Max Dose; for pEC50: agonist, HEK293
T3 construct: expressed in transfected cells; host or cells: HEK293, stably transfected
T3 sequence (P41595 whole entry): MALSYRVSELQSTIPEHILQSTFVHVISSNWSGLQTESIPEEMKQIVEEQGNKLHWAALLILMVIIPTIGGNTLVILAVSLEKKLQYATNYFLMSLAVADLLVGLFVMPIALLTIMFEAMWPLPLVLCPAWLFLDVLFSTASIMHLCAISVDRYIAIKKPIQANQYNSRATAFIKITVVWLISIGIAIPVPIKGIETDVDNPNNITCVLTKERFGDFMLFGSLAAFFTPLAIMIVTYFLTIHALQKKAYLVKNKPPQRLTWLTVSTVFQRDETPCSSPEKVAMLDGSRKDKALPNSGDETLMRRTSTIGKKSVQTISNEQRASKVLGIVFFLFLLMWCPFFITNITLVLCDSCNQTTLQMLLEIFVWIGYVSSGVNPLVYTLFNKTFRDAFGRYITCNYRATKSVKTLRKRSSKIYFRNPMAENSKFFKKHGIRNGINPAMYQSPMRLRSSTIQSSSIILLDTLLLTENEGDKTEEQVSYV
In short: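 FLIPR Tetra fluorescence read-out of calcium flux after compound addition. Receptor-expressing stable lines were used (HEK293 for 2A/2B; CHO with Gα15 for 1A), dye-loaded with Fluo-4 Direct and 2.5 mM final probenecid, 50 min at 37 °C.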

in vitro [1] = type: in vitro ADME, human; conditions: HLM 0.50 mg/mL, NADPH 1 mM, 1 μM compound, pH 7.4, 37° C., 60 min; for microsomal CLint / half-life: human, microsomes; for microsomal CLint: read-out: Intrinsic clearance (Clint); for half-life: read-out: half-life (t1/2)
5-HT2A receptor [2] = molecular target: T4, 5-HT2A receptor (Homo sapiens, UniProt P28223); test: cell-based; type: cell-based; conditions: agonist, beta-arrestin recruitment, max dose; read-out: 5-HT2A Arrestin % Act @ Max Dose
T4 sequence (P28223 whole entry, the tested form may be a part): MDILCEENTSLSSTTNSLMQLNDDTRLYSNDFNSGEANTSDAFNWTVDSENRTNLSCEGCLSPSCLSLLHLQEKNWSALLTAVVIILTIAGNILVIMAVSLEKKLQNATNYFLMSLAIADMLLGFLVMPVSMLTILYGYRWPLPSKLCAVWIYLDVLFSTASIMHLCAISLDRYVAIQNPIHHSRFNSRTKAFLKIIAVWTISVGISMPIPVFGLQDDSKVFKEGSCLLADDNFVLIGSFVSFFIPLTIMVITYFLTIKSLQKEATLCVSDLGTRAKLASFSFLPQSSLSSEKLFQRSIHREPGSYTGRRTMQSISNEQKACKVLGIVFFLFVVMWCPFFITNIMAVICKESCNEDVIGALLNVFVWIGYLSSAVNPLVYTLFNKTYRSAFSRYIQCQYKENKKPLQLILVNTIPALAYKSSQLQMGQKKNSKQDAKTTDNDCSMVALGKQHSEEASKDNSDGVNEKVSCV
Description: Arrestin Functional Assay at 5-HT2A. Recruitment of beta-arrestin was determined using a PathHunter assay at Eurofins DiscoverX (Fremont, CA) according to their standard protocols. PathHunter GPCR beta-arrestin assays take advantage of DiscoverX's proprietary Enzyme Fragment Complementation technology. The GPCR is fused in frame with a small enzyme donor fragment ProLink™ (PK) and co-expressed in cells stably expressing a fusion protein of beta-arrestin and the larger, N-terminal deletion mutant of beta-galactosidase. Activation of the GPCR (5-HT2A receptor in this case) stimulates binding of beta-arrestin to the PK-tagged GPCR and forces complementation of the two enzyme fragments, resulting in the formation of an active beta-galactosidase enzyme. This interaction leads to an increase in enzyme activity that can be measured using chemiluminescent PathHunter Detection Reagents. Briefly, PathHunter cells expressing 5-HT2A receptors were seeded in a volume of 20 μL into 384-well plates and incubated at 37° C. for the appropriate time prior to testing. […] Plates were then imaged on a microplate reader and the agonist activity was calculated using the following formula: % Activity=100%×(mean RLU of test sample-mean RLU of vehicle control)/(mean MAX control ligand-mean RLU of vehicle control), where RLU=relative light units.

in vitro [3] = type: in vitro ADME, rat; conditions: RLM (male Sprague-Dawley) 0.50 mg/mL, NADPH 1 mM, 1 μM compound, pH 7.4, 37° C., 60 min; for microsomal CLint / half-life: rat, microsomes; for microsomal CLint: read-out: Intrinsic clearance (Clint); for half-life: read-out: half-life (t1/2)
Source text: RLM Stability Pooled RLM from male Sprague-Dawley rats (Xenotech R1000) were used.

5-HT2A receptor [4] = molecular target: T4, 5-HT2A receptor; test: cell-based; type: cell-based; set-up: expressed in transfected cells; host or cells: HEK293, stably transfected; conditions: Ca2+ flux; for Emax: HEK293, agonist, HEK293, max dose, read-out: 5-HT2A % Act @ Max Dose; for pEC50: agonist, HEK293
In short: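 FLIPR Ca2+ flux agonist assay using stably transfected HEK293 (5-HT2A, 5-HT2B) or CHO cells co-expressing Gα15 (5-HT1A). Cells loaded with Fluo-4 Direct plus 2.5 mM probenecid (final) for 50 min at 37 °C, then compound added and fluorescence read.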

in vitro [5] = type: in vitro ADME, mouse; conditions: MLM (male CD-1) 0.50 mg/mL, NADPH 1 mM, 1 μM compound, pH 7.4, 37° C., 60 min; for microsomal CLint / half-life: mouse, microsomes; for microsomal CLint: read-out: Intrinsic clearance (Clint); for half-life: read-out: half-life (t1/2)
Source text: MLM Stability Pooled MLM from male CD-1 mice (BIOIVT M00501) were used.

5-HT2A receptor [6] = molecular target: T4, 5-HT2A receptor; test: biochemical; type: binding; set-up: expressed in transfected cells; host or cells: HEK293, stably transfected; conditions: [3H]ketanserin 1 nM; HEK293 stable cell line; 1 h, 25 °C
In short: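 Affinity was measured in radioligand binding experiments using [^3H]ketanserin as the labelled ligand, following methods adapted from published procedures.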

Compound	Emax (5-HT1A receptor) [%]	Emax (5-HT2C receptor) [%]	Emax (5-HT2B receptor) [%]	half-life (t1/2) (in vitro [1]) [min]	Emax (5-HT2A receptor [2]) [%]	half-life (t1/2) (in vitro [3]) [min]	Emax (5-HT2A receptor [4]) [%]	half-life (t1/2) (in vitro [5]) [min]	pEC50 (5-HT1A receptor)	pEC50 (5-HT2C receptor)	pEC50 (5-HT2B receptor)	pKi (5-HT2A receptor [6])	microsomal CLint (in vitro [1]) [µL/min/mg]	half-life (in vitro [1]) [min]	microsomal CLint (in vitro [3]) [µL/min/mg]	half-life (in vitro [3]) [min]	pEC50 (5-HT2A receptor [4])	microsomal CLint (in vitro [5]) [µL/min/mg]	half-life (in vitro [5]) [min]
CC[C@@H](C)NC(=O)[C@H]1C=C2c3cccc4[nH]cc(c34)C[C@H]2N(CC)C1 [Compound 5a, (6aR,9S)—N—((R)-sec-butyl)-7-ethyl-4,6,6a,7,8,9-hexahydroindolo[4,3-fg]quinoline-9-carboxamide]	112	99.4	43.7	5.5	62.4	3.1	89.6	1.7	–	–	–	–	–	–	–	–	–	–	–
CCCN1C[C@@H](C(=O)N[C@H](C)CC)C=C2c3cccc4[nH]cc(c34)C[C@H]21 [Compound 3a, (6aR,9S)—N—((R)-sec-butyl)-7-propyl-4,6,6a,7,8,9-hexahydroindolo[4,3-fg]quinoline-9-carboxamide]	108	109	52.8	2.2	113	1.4	92	0.6	–	–	–	–	–	–	–	–	–	–	–
CCN(CC)C(=O)[C@H]1C=C2c3cccc4[nH]cc(c34)C[C@H]2N(CCCF)C1 [Compound 2a, (6aR,9S)—N,N-diethyl-7-(3-fluoropropyl)-4,6,6a,7,8,9-hexahydroindolo[4,3-fg]quinoline-9-carboxamide]	96.8	119	40.1	17.018	83.3	9.673	90.3	1.776	–	–	–	–	–	–	–	–	–	–	–
CCN(CC)C(=O)[C@@H]1C=C2c3cccc4[nH]cc(c34)C[C@H]2N(Cc2ccc(F)c(F)c2)C1 [Compound 54, (6aR,9R)-7-(3,4-difluorobenzyl)-N,N-diethyl-4,6,6a,7,8,9-hexahydroindolo[4,3-fg]quinoline-9-carboxamide]	51	8.36	0.91	–	–	–	59.2	–	< 4.00	< 5.00	< 5.00	8.27	73.9	18.7	110	12.6	5.73	242	5.7
CCN(CC)C(=O)[C@@H]1C=C2c3cccc4[nH]cc(c34)C[C@H]2N(Cc2ccc(C)cc2)C1 [Compound 97, (6aR,9R)—N,N-diethyl-7-(4-methylbenzyl)-4,6,6a,7,8,9-hexahydroindolo[4,3-fg]quinoline-9-carboxamide]	84.5	–	–	–	–	–	–	–	< 4.00	8.39	7.78	7.64	63.5	21.8	532	2.6	7.64	511	2.7
CCN(CC)C(=O)[C@@H]1C=C2c3cccc4[nH]cc(c34)C[C@H]2N(Cc2cccc(F)c2)C1 [Compound 52, (6aR,9R)—N,N-diethyl-7-(3-fluorobenzyl)-4,6,6a,7,8,9-hexahydroindolo[4,3-fg]quinoline-9-carboxamide]	93	14.5	4.22	–	–	–	81.7	–	5.10	< 5.00	< 5.00	8.27	77.9	17.8	302	4.6	6.33	338	4.1
C=CCN1C[C@@H](C(=O)N[C@H](C)CC)C=C2c3cccc4[nH]cc(c34)C[C@H]21 [Compound 8a, (6aR,9S)-7-allyl-N—((R)-sec-butyl)-4,6,6a,7,8,9-hexahydroindolo[4,3-fg]quinoline-9-carboxamide]	90.3	13.3	35.7	3.4	81.1	1.7	87.5	0.8	–	–	–	–	–	–	–	–	–	–	–
